Columns and labels:
MMP-9 = assay: Gelatin zymography: LPS-activated active expression of MMP-9 in NR8383 cells; format: cell-based, rat; conditions: Table 4, LPS 1 μg/mL, 24 hours
Description: As indicated above, when an inflammatory response occurs in animal's pulmonary tissue, the active inflammatory cells will secret MMPs that will destroy the pulmonary tissue structure, cause more serious pulmonary injury, and lead to the decrement in or the loss of pulmonary functions. […]
Thereafter, the medium of each group was collected and respectively subjected to the following procedures. A 10% polyacrylamide gel containing 0.2% gelatin was used to carry out the sodium dodecyl sulfate polyacrylamide gel electrophoresis (SDS-PAGE). After the electrophoresis was completed, the gel was sequentially soaked in 2.5% Triton X-100 solution for 90 minutes to remove SDS, soaked in distillation-distillation water (ddH2O) for 30 minutes, and placed in a reaction solution (50 mM Tris-HCl buffer containing 10 mM CaCl2 and 0.02% NaN3) at a temperature of 37° C. for 18 hours. After the foregoing reaction was completed, the gel was stained by a Coomassie blue staining solution, and the image of stained gel was taken and subjected to an image analysis. The image intensity (the image intensity was calculated based on the size of area and the shade of color) of highlight band (i.e., the gelatin in this area was degraded by MMPs, wherein the area locating around 95 kD molecular weight) on the gel of each group can reflect the active expression of MMP-9 of rat alveolar macrophage NR8383 cells under different conditions (the relative active expression of MMP-9 was calculated by serving the results of the blank group as 0% and serving that of the control group as 100%).
Rat alveolar macrophage NR8383 cells were divided into twenty-eight groups and separately cultivated with the following media for 24 hours: • (1) Blank group: a macrophage growth medium; • (2) Control group: a macrophage growth medium containing 1 μg/mL LPS; • (3) Positive control group: a macrophage growth medium containing 1 μg/mL LPS and 5 μM Prednisolone (a type of corticosteroid; abbreviated as “Pred”; purchased from Sigma-Aldrich); • (4) Extract C (including five sub-groups): a macrophage growth medium containing 1 μg/mL LPS and the extract C provided by [preparation example A-3-2], wherein the extract C is present in the five sub-groups at a concentration of […] respectively; • (5) Extract D (including five sub-groups): a macrophage growth medium containing 1 μg/mL UPS and the extract D provided by [preparation example A-4-2], wherein the extract D is present in the five sub-groups at a concentration of 0.78, 1.56, 3.13, 6.25 and 12.5 respectively; • (6) Extract E (including five sub-groups): a macrophage growth medium containing 1 μg/mL LPS and the extract E provided from [preparation example A-4-3], wherein the extract E is present in the five sub-groups at a concentration of 0.78, 1.56, 3.13, […], and 12.5 respectively; • (7) DATA group (including five sub-groups): a macrophage growth medium containing 1 μg/mL LPS and the dehydrotrametenolic acid (DTTA) provided by [preparation example C-1], wherein the dehydrotrametenolic acid (DTTA) is present in the five sub-groups at a concentration of 0.39, 0.78, 1.56, 3.13 and 6.25 μg/mL respectively; and • (8) PAA group (including live sub-groups): a macrophage growth medium containing 1 μg/mL LPS and the poricoic acid A (PAA) provided from [preparation example C-1], wherein the poricoic acid A (PAA) is present in the five sub-groups at a concentration of 6.25, 12.5, 25, 50 and 100 respectively.
Thereafter, the medium of each group was collected and analyzed by the analyzing procedures same as that of (1-1).

pro-form MMP-9 = assay: Western blot: pro-form MMP-9 expression in LPS-treated NR8383 cells; format: cell-based, rat; conditions: 0.01 μg/mL LPS; 12.5 μg/mL; 24 hours; vs control group
Experimental: (§1) Rat alveolar macrophage NR8383 cells were divided into six groups and separately cultivated with the following media for 24 hours: • (1) Control group: a macrophage growth medium containing 0.01 μg/mL LPS; • (2) Positive control group: a macrophage growth medium containing 0.01 μg/mL LPS and 1 μM Dex; and • (3) Extract A group (including four sub-groups): a macrophage growth medium containing 0.01 μg/mL LPS and the extract A provided by [preparation example A-2-2], wherein the extract A is present in the four sub-groups at a concentration of 6.25, 12.5, 25 and 50 μg/mL respectively.
(§2) Thereafter, the proteins in the cells of each group were extracted and then subjected to a Western blot to measure the expression level of pro-form MMP-9 (i.e., the zymogen form of MMP-9), active-form MMP-9 and MMP-12. The relative expression level of pro-form MMP-9, active-form MMP-9 and MMP-12 of each group was calculated by using the results of the control group as a basis (i.e., the expression level of control group was served as 1-fold).
(§3) Rat alveolar macrophage NR8383 cells were divided into ten groups and separately cultivated with the following media for 24 hours:
(§4) (1) Control group: a macrophage growth medium containing 0.01 μg/mL LPS;
(§5) (2) Positive control group: a macrophage growth medium containing 0.01 μg/mL LPS and 1 μM Dex; […]

active-form MMP-9 = assay: Western blot: active-form MMP-9 expression in LPS-treated NR8383 cells; format: cell-based, rat; conditions: 0.01 μg/mL LPS; 12.5 μg/mL; 24 hours; vs control group
Experimental: as §1, §2, §3, §4, §5

MMP-12 = assay: Western blot: MMP-12 expression in LPS-treated NR8383 cells; format: cell-based, rat; conditions: 0.01 μg/mL LPS; 12.5 μg/mL; 24 hours; vs control group
Experimental: as §1, §2, §3, §4, §5

Mucin 5AC = assay: Western blot: LPS-induced expression of Mucin 5AC in NCI-H929 cells; format: cell-based, human; conditions: 1 μg/mL LPS, 24 hours, vs control group
Description: As indicated above, the hypersecretion of mucus in airway can be observed in the patients suffering from pulmonary injury-related diseases, such as chronic obstructive pulmonary disease and emphysema, and the mucus hypersecretion is associated with the overexpression of mucins in pulmonary tissue. Symptoms like the increased sputum production will occur in the patients suffering from the mucin hypersecretion in airway, and the increased sputum will accumulate in the airway and lung, thereby making the airway narrow and increasing respiratory resistance. To investigate the effects of active ingredients of FU-LING extract in regulating, preventing, and/or treating the pulmonary injury-related diseases, such as chronic obstructive pulmonary disease and emphysema, a Western blot was conducted to measure the inhibitory rate of active ingredients of FU-LING extract (tumulosic acid and poricoic acid A) on the LPS-induced expression of Mucin 5AC in human lung epithelial NCI-H929 cells.
Human lung epithelial NCI-H929 cells were divided into ten groups and separately cultivated with the following media for 24 hours:
(1) Control group: an epithelial cell growth medium containing […];
(2) Positive control group: an epithelial cell growth medium containing 1 μg/mL LPS and 10 μM Dex;
(3) TA group (including four sub-groups): an epithelial cell growth medium containing […] the tumulosic acid (TA) provided by [preparation example C-1], wherein the tumulosic acid (TA) is present in the four sub-groups at a concentration of 1.56, 3.13, 6.25 and 12.5 μg/mL respectively; and
(4) PAA group (including four sub-groups): an epithelial cell growth medium containing 1 μg/mL LPS the poricoic acid A (PAA) provided by [preparation example C-1], wherein the poricoic acid A (PAA) is present in the four sub-groups at a concentration of 6.25, 12.5, 25 and 50 μg/mL respectively.
as §2, with “Mucin 5AC.” for “pro-form MMP-9 (i.e., the zymogen form of MMP-9), active-form MMP-9 and MMP-12.”, “Mucin 5AC” for “pro-form MMP-9, active-form MMP-9 and MMP-12”

C=C(CC[C@@H](C(=O)O)[C@H]1[C@H](O)C[C@@]2(C)C3=C(CC[C@]12C)[C@@]1(C)CC[C@H](O)C(C)(C)[C@@H]1CC3)C(C)C [TA, tumulosic acid]
Relative active expression of MMP-9 (%) (MMP-9; 3.13 μg/mL): 60.6%
Relative active expression of MMP-9 (%) (MMP-9; 6.25 μg/mL): 28.4%
Relative active expression of MMP-9 (%) (MMP-9; 12.5 μg/mL): 0%
Inhibitory rate on the expression level of pro-form MMP-9 (pro-form MMP-9): 53%
Inhibitory rate on the expression level of active-form MMP-9 (active-form MMP-9): 100%
Inhibitory rate on the expression level of MMP-12 (MMP-12): 45%
Inhibitory rate on LPS-induced expression of Mucin 5AC (Mucin 5AC; 1.56 μg/mL (low-dose)): up to 75%
Inhibitory rate on LPS-induced expression of Mucin 5AC (Mucin 5AC; 12.5 μg/mL (high-dose)): ≤ 81%
